Article PMC3175280 (Neurochemistry international, 2011)
Several values for one entry are separate records, joined by “and”; a condition that tells them apart may be missing. Equal values may be shown once.

How the values were obtained:
[1] = target: T1, S299Cα1β1γ2S GABAA receptors (Rattus norvegicus, UniProt P15431+P18508+P62813, S325C); assay: Substituted cysteine accessibility; format: cell-based; details: for reduction of subsequent ALLO induced current: 0.5 mM pCMBS added with 5 nM ALLO; for inhibition of subsequent ALLO induced current: 0.5 mM pCMBS added with 100 nM ALLO
T1 sequence (P62813 28-455 S325C): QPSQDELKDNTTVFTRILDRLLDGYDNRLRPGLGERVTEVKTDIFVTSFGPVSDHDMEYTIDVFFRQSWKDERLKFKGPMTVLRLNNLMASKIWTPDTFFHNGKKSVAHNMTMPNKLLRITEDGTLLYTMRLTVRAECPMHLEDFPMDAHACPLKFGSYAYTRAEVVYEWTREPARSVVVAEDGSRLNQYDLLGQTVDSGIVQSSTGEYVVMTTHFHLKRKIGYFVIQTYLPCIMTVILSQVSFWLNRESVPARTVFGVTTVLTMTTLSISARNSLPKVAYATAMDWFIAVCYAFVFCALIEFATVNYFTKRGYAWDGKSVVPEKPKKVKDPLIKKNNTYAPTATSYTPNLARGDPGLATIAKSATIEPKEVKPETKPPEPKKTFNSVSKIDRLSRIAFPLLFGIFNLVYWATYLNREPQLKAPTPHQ
T1 sequence (P15431 26-474): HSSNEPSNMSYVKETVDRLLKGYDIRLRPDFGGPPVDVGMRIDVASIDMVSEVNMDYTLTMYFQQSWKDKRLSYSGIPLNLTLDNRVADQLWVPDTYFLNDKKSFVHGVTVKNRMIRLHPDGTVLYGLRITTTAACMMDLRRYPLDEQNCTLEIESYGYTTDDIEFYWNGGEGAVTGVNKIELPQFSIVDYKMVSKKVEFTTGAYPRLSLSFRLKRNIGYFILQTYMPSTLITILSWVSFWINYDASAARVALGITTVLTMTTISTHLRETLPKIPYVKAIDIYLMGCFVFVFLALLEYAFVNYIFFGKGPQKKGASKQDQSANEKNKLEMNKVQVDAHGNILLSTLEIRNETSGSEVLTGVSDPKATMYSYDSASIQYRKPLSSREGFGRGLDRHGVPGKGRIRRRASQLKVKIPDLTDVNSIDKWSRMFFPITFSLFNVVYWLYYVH
T1 sequence (P18508 39-466): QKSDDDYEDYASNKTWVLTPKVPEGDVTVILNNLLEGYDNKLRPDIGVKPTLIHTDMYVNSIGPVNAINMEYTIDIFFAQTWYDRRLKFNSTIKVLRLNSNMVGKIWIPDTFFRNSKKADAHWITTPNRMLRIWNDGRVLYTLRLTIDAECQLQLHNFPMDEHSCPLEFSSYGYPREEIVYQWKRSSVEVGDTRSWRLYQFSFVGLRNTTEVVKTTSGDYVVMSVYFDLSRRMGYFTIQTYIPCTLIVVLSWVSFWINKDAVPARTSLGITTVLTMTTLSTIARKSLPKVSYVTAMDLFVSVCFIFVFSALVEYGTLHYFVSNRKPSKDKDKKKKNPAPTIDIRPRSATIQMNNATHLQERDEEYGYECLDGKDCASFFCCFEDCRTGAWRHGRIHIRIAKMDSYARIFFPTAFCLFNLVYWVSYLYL

[2] = target: T1, S299Cα1β1γ2S GABAA receptors; assay: Steroid activation; format: cell-based; details: for current passed, % of 1 mM GABA current: representative trace; for first peak maximal current (curve fit), % of maximal (1 mM GABA) current: first (low concentration) peak of the bimodal dose response; for second peak maximal current (curve fit), % of maximal (1 mM GABA) current: second (high concentration) peak of the bimodal dose response
[3] = target: T1, S299Cα1β1γ2S GABAA receptors; assay: Extreme low dose assay; format: cell-based; details: for co-application current, scaled to the added currents = 1 / added separate currents, scaled: n=4; for difference between co-applied and added currents: not significant
[4] = target: T2, wt α1β1γ2S GABAA receptors (Rattus norvegicus, UniProt P15431+P18508+P62813); assay: Steroid activation; format: cell-based
T2 sequence (P62813 28-455): as the sequence (P62813 28-455 S325C) above, with C298S counted along it
T2 sequence (P15431 26-474): as the sequence (P15431 26-474) above
T2 sequence (P18508 39-466): as the sequence (P18508 39-466) above

[5] = target: T2, wt α1β1γ2S GABAA receptors; format: cell-based; details: 0.5 μM ALLO, about EC30, n=3
[6] = target: T1, S299Cα1β1γ2S GABAA receptors; assay: Steroid potentiation of submaximal GABA current, S299C receptors; format: cell-based; details: not shown for THDOC
[7] = tested on: α1S299C containing GABAA receptors; details: ref Williams and Akabas 1999, 2000, 2002; cited from earlier work
[8] = target: T1, S299Cα1β1γ2S GABAA receptors; assay: Blocking ALLO-induced current with isoallopregnanolone; format: cell-based
[9] = target: T1, S299Cα1β1γ2S GABAA receptors; assay: P4S dose response curve, S299C receptors; format: cell-based
[10] = target: wild type α1β1γ2S GABAA receptors (Rattus norvegicus, UniProt P15431+P18508+P62813); assay: P4S dose response curve, wild type receptors; format: cell-based
wild type α1β1γ2S GABAA receptors, sequence (P62813 28-455): as the sequence (P62813 28-455 S325C) above, with C298S counted along it
wild type α1β1γ2S GABAA receptors, sequence (P15431 26-474): as the sequence (P15431 26-474) above
wild type α1β1γ2S GABAA receptors, sequence (P18508 39-466): as the sequence (P18508 39-466) above

[11] = tested on: α1S299C containing GABAA receptors; details: preliminary dose response (not shown)
[12] = target: T2, wt α1β1γ2S GABAA receptors; assay: SCAM with pCMBS on ALLO-induced currents, wt receptors; format: cell-based; details: pCMBS added in any concentration of ALLO (not shown)
[13] = target: T1, S299Cα1β1γ2S GABAA receptors; details: pCMBS added in the presence of GABA; ref Williams and Akabas 1999; cited from earlier work
[14] = target: T1, S299Cα1β1γ2S GABAA receptors; assay: Blocking ALLO-induced current with picrotoxin; format: cell-based; details: 1 mM PTN co-applied with 5 nM ALLO

C[C@]12CC[C@@H](O)C[C@@H]1CC[C@@H]1[C@@H]2CC[C@]2(C)C(c3ccccc3)=CC[C@@H]12 [17-PA, (3α,5α)-17-phenylandrost-16-en-3-ol]
percent change of 100 nM ALLO induced current ([1]; 1 μM 17-PA added with pCMBS, subsequent 100 nM ALLO current): −4 ± 8%

CC(=O)[C@H]1CC[C@H]2[C@@H]3CC[C@H]4C[C@H](O)CC[C@]4(C)[C@H]3CC[C@]12C [ALLO, 3α-hydroxy-5α-pregnan-20-one]
inward current, % of 1 mM GABA current ([2]; 50 pM steroid, no GABA, n=4): 6 ± 4%
current passed, % of 1 mM GABA current ([2]; 5 nM steroid): approximately 50%
current passed, % of 1 mM GABA current ([2]; 100 nM steroid): approximately 50%
EC50 ([2]; EC50, first activation curve, first plateau to valley fit as a separate curve): 0.59 nM
EC50 ([2]; EC50, second activation curve, second plateau to valley fit as a separate curve): 70 nM
first peak maximal current (curve fit), % of maximal (1 mM GABA) current [2]: 58 ± 0.25%
second peak maximal current (curve fit), % of maximal (1 mM GABA) current [2]: 42 ± 0.26%
co-application current, scaled to the added currents = 1 ([3]; 100 pM ALLO + 100 nM GABA co-applied): 1.21 ± 0.45
added separate currents, scaled ([3]; 100 pM ALLO alone plus 100 nM GABA alone): 1.0 ± 0.35
co-application current, scaled to the added currents = 1 ([3]; 5 nM ALLO + 100 nM GABA co-applied): 1.27 ± 0.39
added separate currents, scaled ([3]; 5 nM ALLO alone plus 100 nM GABA alone): 1.0 ± 0.21
difference between co-applied and added currents ([3]; 100 nM GABA and 100 pM ALLO): 20%
difference between co-applied and added currents ([3]; 100 nM GABA and 5 nM ALLO): 27%
EC50 [4]: 870 nM
maximal steroid induced current, % of 1 mM GABA current ([4]; wt receptors, steroid alone, −60 mV): about 43 ± 15%
potentiation, percent increase of 1 μM GABA current [5]: 120 ± 28%
potentiation of submaximal GABA current [6]: no significant potentiation

NCCCC(=O)O [GABA]
response of α1S299C containing receptors compared with wild type [7]: near wild type

CC(=O)[C@H]1CC[C@H]2[C@@H]3CC[C@H]4C[C@@H](O)CC[C@]4(C)[C@H]3CC[C@]12C [ISO, 3β-hydroxy-5α-pregnan-20-one]
block of ALLO induced current ([8]; 5 nM ISO, 5 nM ALLO): 90 ± 5% and 80–85%
block of ALLO induced current ([8]; 5 nM ISO, 100 nM ALLO): 86 ± 8% and 80–85%
block of ALLO induced current ([8]; 100 nM ISO, 5 nM ALLO): 73 ± 4%

O=S(=O)(O)C1CCNCC1 [P4S, Piperidine-4-sulfonic acid]
Kd [9]: 90 ± 18 µM
maximal current induced, % of 1 mM GABA current ([9]; S299C, n of 3): 58 ± 1.6%
Kd [10]: 110 ± 37 µM
maximal current induced, % of 1 mM GABA current ([10]; wt, n of 3): 61 ± 3.7%

C[C@]12CC[C@@H](O)C[C@@H]1CC[C@@H]1[C@@H]2CC[C@]2(C)[C@@H](C(=O)CO)CC[C@@H]12 [THDOC, 3α,21-hydroxy-5α-pregnan-20-one]
current passed, % of 1 mM GABA current ([2]; 1 nM steroid): more than 50%
current passed, % of 1 mM GABA current ([2]; 100 nM steroid): approximately 50%
first peak maximal current (curve fit), % of maximal (1 mM GABA) current [2]: 57 ± 5.3%
second peak maximal current (curve fit), % of maximal (1 mM GABA) current [2]: 48 ± 0.35%
potentiation of submaximal GABA current [6]: no significant potentiation

CCO [ethanol, Ethanol]
shift of EC50 versus wt [11]: shift to a higher EC50

O=S(=O)(O)c1cc[c]([Hg][Cl])cc1 [pCMBS^−, para-chloromercuribenzenesulfonic acid]
effect on subsequent ALLO induced currents [12]: did not affect
accessibility of S299C to modification [13]: not accessible to be modified
reduction of subsequent ALLO induced current ([1]; subsequent 5 nM ALLO current): 28 ± 8%
reduction of subsequent ALLO induced current ([1]; subsequent 100 nM ALLO current): 22 ± 20%
inhibition of subsequent ALLO induced current ([1]; subsequent 5 nM ALLO current): 63 ± 15%
inhibition of subsequent ALLO induced current ([1]; subsequent 100 nM ALLO current): 63 ± 15%
decrease of ALLO current during co-application ([1]; 0.5 mM pCMBS applied simultaneously with 5 nM ALLO): 7 ± 29%
reduction of ALLO current during co-application ([1]; 0.5 mM pCMBS co-applied with 100 nM ALLO): 62 ± 17%
percent difference in subsequent ALLO current ([1]; pCMBS added with 1 μM ISO, subsequent 100 nM ALLO current): −71 ± 10%
percent difference in subsequent ALLO current ([1]; pCMBS co-applied with 100 nM ISO, subsequent 5 nM ALLO current): 3 ± 14%
effect on subsequent ALLO currents ([1]; pCMBS plus 5 nM ISO, subsequent 5 nM or 100 nM ALLO currents (not shown)): did not affect

CC(C)c1cccc(C(C)C)c1O [propofol]
response of α1S299C containing receptors compared with wild type [7]: near wild type

Picrotoxin [PTN]
block of ALLO induced current [14]: 80 ± 20% and ~80%
